Laboratory results from patent US20260207580A1, “NITROXOLINE FOR USE IN THE TREATMENT OR PREVENTION OF A MALIGNANT PERIPHERAL NERVE SHEATH TUMOUR” (HEALX LTD, priority 2022, published 2026).

Experiments:
Format in all cases: cell-based
[1] = system: Nf1^−/−; Ink4a/Arf^+/− DNSCs; assay: DNSC proliferation and viability, CellTiter-Glo Assay; conditions: cells Nf1−/−, 48 hrs incubation, serially diluted from 105 μM
Method: (§1) Nf1-Ink4a/Arf mutant DNSCs have increased cell cycle activity and proliferation in vitro, consistent with the in vivo phenotypes. The present study utilizes Nf1^−/− and Nf1^−/−; Ink4a/Arf^+/− mutant DNSCs obtained by transient infection of Nf1^flox/flox and Nf1^flox/flox; Ink4a/Arf^flox/+ DNSCs with an adenovirus carrying Cre recombinase. Selectivity of nitroxilone was compared between Nf1^−/− and Nf1^−/−; Ink4a/Arf^+/− DNSCs.
(§2) Nf1^−/− and Nf1^−/−; Ink4a/Arf^+/− DNSCs described above were treated with serially diluted nitroxoline starting from 105 μM and incubated for 48 hrs. After the incubation period, proliferation, viability and apoptosis assays were performed as described below: • DNSC proliferation and viability was assessed using the CellTiter-Glo Assay (Promega) which measures […]. […] After 10 minutes, the plates were read using a 96-well microplate luminometer. • To assess cellular apoptosis, the Caspase-Glo 3/7 kit (Promega) was utilized according to the manufacturer's instructions. […] After 10 minutes, plates were read using a 96 well luminometer to measure caspase 3/7 activity.

Nf1^−/− DNSCs [2] = assay: as above; conditions: cells Nf1−/−; 48 hrs incubation; serially diluted from 105 μM
Method: as §1, §2

[3] = system: Nf1^−/−; Ink4a/Arf^+/− DNSCs; assay: Cellular apoptosis, Caspase-Glo 3/7 kit (caspase 3/7 activity); conditions: cells Nf1−/−, 48 hrs incubation, serially diluted from 105 μM
Method: as §1, §2

Nf1^−/− DNSCs [4] = assay: as above; conditions: nf1−/− cells; 48 hrs incubation; serially diluted from 105 μM
Method: as §1, §2

## O=[N+]([O-])c1ccc(O)c2ncccc12 [Nitroxoline, 5-nitroquinolin-8-ol]
[1]
  concentrations at which the antiproliferative effect was observed: greater than 3 μM
Nf1^−/− DNSCs [2]
  concentrations at which the antiproliferative effect was observed: greater than 10 μM
[3]
  concentrations at which the induction of apoptosis was evident: greater than 10 μM
Nf1^−/− DNSCs [4]
  concentrations at which the induction of apoptosis was evident: 30 to 100 µM
